Source: US20140364434A1, “Biomarkers for Prediction of Response to PARP Inhibition in Breast Cancer” (The Regents of the University of Califonia, priority 2011, published 2014)
Like-named read-outs stand apart in the source and are kept apart here.

Assays:
[1] = tested on: sporadic triple negative breast cancer; conditions: cited from earlier work
[2] = tested on: hereditary BRCA1/2-related breast cancer; conditions: cited from earlier work
[3] = tested on: metastatic triple negative breast cancer; conditions: cited from earlier work
BT20 = assay: growth inhibition assay, sensitivity to olaparib (SF50); format: cell-based, human
Experimental: (§1) Cells were exposed continuously to the inhibitor, and medium and inhibitor were replaced every four days. After 15 days, cells were fixed and stained with sulphorhodamine-B (Sigma, St. Louis, USA) and a colorimetric assay performed as described previously. Surviving fractions (SFs) were calculated and drug sensitivity curves determined with the Four Parameter Logistic Regression model as previously described. […] Nature 2005, 434(7035):917-921, Edwards S L, Brough R, Lord […], Boyd […], Ashworth A: […] Nature 2008, 451(7182):1111-1115]. […] Oncogene 30 (29):3222-3233. doi:10.1038/one.2011.421). A detailed description of the availability and preprocessing of all molecular data sets is provided below and [[…], et al., (2012) Subtype and pathway specific responses to anticancer compounds in breast cancer. […] These cells mirror many of the transcriptional and genomic characteristics of primary breast tumors and have been used to model responses to a large number of experimental and approved therapeutic compounds [Neve R M, Chin […], Clark L, Bayani N, Coppe J P, Tong F et al: A collection of breast cancer cell lines for the study of functionally distinct cancer subtypes. […] (2012) Subtype and pathway specific responses to anticancer compounds in breast cancer. […] Cell lines were divided into a group of 15 resistant and 7 sensitive cell lines, based on an SF50 threshold of 1 μM. […] Surviving fractions (SFs) were calculated and drug sensitivity curves determined with the Four Parameter Logistic Regression model as previously described [Farmer H, McCabe N, Lord C J, Tutt A N, Johnson D A, Richardson […], Dillon […], Knights C et al: Targeting the DNA repair defect in BRCA mutant cells as a therapeutic strategy. Nature 2005, 434(7035):917-921].\

BT474 = assay: as above; format: cell-based, human
Experimental: as §1

BT549 = assay: as above; format: cell-based, human
Experimental: as §1

CAMA1 = assay: as above; format: cell-based, human
Experimental: as §1

HCC1143 = assay: as above; format: cell-based, human
Experimental: as §1

HCC1428 = assay: as above; format: cell-based, human
Experimental: as §1

HCC1954 = assay: as above; format: cell-based, human
Experimental: as §1

HCC202 = assay: as above; format: cell-based, human
Experimental: as §1

HCC38 = assay: as above; format: cell-based, human
Experimental: as §1

HCC70 = assay: as above; format: cell-based, human
Experimental: as §1

HS578T = assay: as above; format: cell-based, human
Experimental: as §1

MCF7 = assay: as above; format: cell-based, human
Experimental: as §1

MDAMB134VI = assay: as above; format: cell-based, human
Experimental: as §1

MDAMB157 = assay: as above; format: cell-based, human
Experimental: as §1

MDAMB231 = assay: as above; format: cell-based, human
Experimental: as §1

MDAMB436 = assay: as above; format: cell-based, human
Experimental: as §1

MDAMB453 = assay: as above; format: cell-based, human
Experimental: as §1

MDAMB468 = assay: as above; format: cell-based, human
Experimental: as §1

SKBR3 = assay: as above; format: cell-based, human
Experimental: as §1

SUM149PT = assay: as above; format: cell-based, human
Experimental: as §1

SUM159PT = assay: as above; format: cell-based, human
Experimental: as §1

T47D = assay: as above; format: cell-based, human
Experimental: as §1

[4] = tested on: panel of 22 breast cancer cell lines; assay: growth inhibition assay, whole panel (SF50); format: cell-based, human
Experimental: as §1

[5] = tested on: BRCA1/2 mutation carriers; conditions: monotherapy; BRCA1/2 mutation carriers who had previously received several courses of chemotherapy; cited from earlier work
[6] = tested on: carriers of a BRCA1/2 mutation and patients without known BRCA mutations; conditions: cited from earlier work
[7] = heavily pre-treated sporadic triple negative breast cancer
[8] = read-out: Olaparib SF50, continuous exposure 15 days, sulphorhodamine-B
[9] = read-out: olaparib SF50, Table 9

For `C[C@]1(c2nc3c(C(N)=O)cccc3[nH]2)CCCN1` [ABT-888], the “activity of the combination with temozolomide” value [1, 7] is given as “no evidence of activity” and the “efficacy combined with DNA-damaging agent temozolomide” value [2] is given as “efficacious”.
For `NC(=O)c1ccc(I)c([N+](=O)[O-])c1` [BSI-201], the “survival, phase II clinical trial” value ([3]; combined with gemcitabine/carboplatin chemotherapy) is listed as “dramatic survival advantage” and the “confirmation in randomized, open-label phase III study” value ([3]; combined with gemcitabine/carboplatin) is listed as “could not be confirmed”.
For `NC(=O)c1cccc2cn(-c3ccc([C@@H]4CCCNC4)cc3)nc12` [MK-4827], the “efficacy as single agent” value [2] is listed as “efficacious”.
`O=C(c1cc(Cc2n[nH]c(=O)c3ccccc23)ccc1F)N1CCN(C(=O)C2CC2)CC1` [Olaparib] gave an IC50 (BT20; [8]) greater than 50 µM, an IC50 (BT20; [9]) greater than 50 µM and an IC50 (BT474; [8]) of 32 µM. For the same compound, the IC50 (BT474; [9]) was 32 µM, the IC50 (BT549; [8]) was 21.4 µM and the IC50 (BT549; [9]) was 21.4 µM. It also gave an IC50 (CAMA1; [8]) greater than 50 µM, an IC50 (CAMA1; [9]) greater than 50 µM and an IC50 (HCC1143; [8]) of 0.0211 µM. The IC50 (HCC1143; [9]) was 0.0211 µM, the IC50 (HCC1428; [8]) was greater than 50 µM and the IC50 (HCC1428; [9]) was greater than 50 µM. It also gave an IC50 (HCC1954; [8]) of 15.5 µM, an IC50 (HCC1954; [9]) of 15.5 µM and an IC50 (HCC202; [8]) of 0.413 µM. The IC50 (HCC202; [9]) was 0.413 µM, the IC50 (HCC38; [8]) was greater than 50 µM and the IC50 (HCC38; [9]) was greater than 50 µM. The IC50 (HCC70; [8]) was 0.655 µM, the IC50 (HCC70; [9]) was 0.655 µM and the IC50 (HS578T; [8]) was 6.55 µM. It also gave an IC50 (HS578T; [9]) of 6.55 µM, an IC50 (MCF7; [8]) of 14.7 µM and an IC50 (MCF7; [9]) of 14.7 µM. The IC50 (MDAMB134VI; [8]) was 30.9 µM, the IC50 (MDAMB134VI; [9]) was 30.9 µM and the IC50 (MDAMB157; [8]) was 2.41 µM. It also gave an IC50 (MDAMB157; [9]) of 2.41 µM, an IC50 (MDAMB231; [8]) of 30 µM and an IC50 (MDAMB231; [9]) of 30 µM. The IC50 (MDAMB436; [8]) was 0.00044 µM, the IC50 (MDAMB436; [9]) was 0.00044 µM and the IC50 (MDAMB453; [8]) was 0.00915 µM. For the same compound, the IC50 (MDAMB453; [9]) was 0.00915 µM, the IC50 (MDAMB468; [8]) was 0.514 µM and the IC50 (MDAMB468; [9]) was 0.514 µM. The IC50 (SKBR3; [8]) was greater than 50 µM, the IC50 (SKBR3; [9]) was greater than 50 µM and the IC50 (SUM149PT; [8]) was 0.0161 µM. It also gave an IC50 (SUM149PT; [9]) of 0.0161 µM, an IC50 (SUM159PT; [8]) of 16.3 µM and an IC50 (SUM159PT; [9]) of 16.3 µM. For the same compound, the IC50 (T47D; [8]) was 19.9 µM, the IC50 (T47D; [9]) was 19.9 µM and the IC50 ([4]; 5 cell lines of the panel, read-out: SF50 not reached at the maximum treatment concentration) was greater than 50 µM. The IC50 ([4]; read-out: concentration of olaparib needed to reduce survival to 50% (SF50), lower end of the range, lowest SF50 among 22 breast cancer cell lines) was 0.00044 µM, the IC50 ([4]; read-out: concentration of olaparib needed to reduce survival to 50% (SF50), upper end of the range, highest SF50 reached among 22 breast cancer cell lines) was 32 µM and the objective response rates [5] was 41%. The “results as single agent” value [1, 7] was “negative results”, the “response to monotherapy, phase 2 trial” value ([1]; olaparib monotherapy, triple negative breast cancer patients) was “largely did not respond” and the “efficacy as single agent” value [2] was “efficacious”. For the same compound, the “antitumor activity, phase 1 trial” value ([6]; BRCA1/2 mutation carriers vs patients without known BRCA mutations) was “has antitumor activity for the majority of carriers of a BRCA1/2 mutation but not for patients without known BRCA mutations” and the “adverse effects, phase 1 trial” value ([6]; compared with conventional chemotherapy) was “only a few of the adverse effects of conventional chemotherapy”.
